Experimental data from patent publication US20230310390A1, “INHIBITORS OF SHORT-CHAIN DEHYDROGENASE ACTIVITY FOR TREATING NEURODEGENERATION” (CASE WESTERN RESERVE UNIVERSITY, priority 2020, published 2023).

Columns and labels:
Format in all cases: in vivo
eicosanoids [1] = assay: Eicosanoid profiling by LC-MS/MS, left hippocampus of wild-type and 5×FAD mice; conditions: 5 mk/kg twice daily for 4 weeks
Experimental: (§1) Eicosanoids were measured by methods of liquid chromatography with tandem mass spectrometry with the use of spiked in deuterated internal standards. Eicosanoids measured included: the 6-keto-PGF1 alpha (6-keto-PGF1a, a hydrolysis product of and proxy for prostacyclin), thromboxane B2 (TXB2, a metabolite/product of and proxy for thromboxane A2), PGD2, PGE2, 15-keto-PGE2 (produced by 15-PGDH degradation of PGE2), tetranor PGE1 (TN-E, a metabolic product produced by beta-oxidation of PGE2), PGJ2, PGF2 alpha (PGF2a), LTB4, 15-HETE, 12-HETE, 8-HETE, 5-HETE, 17-HDHA, 12,13-DiHOME, 14,15-DHET, 11,12-DHET.
(§2) FIG. 2 illustrates graphs showing comparison of eicosanoid values in brain of 6 month old male mice that are either wild-type or that are the 5×FAD strain of mice that model Alzheimer's disease. Beginning at 5 months of age both genotypes of mice were injected twice daily with either 5 mk/kg (+)-SW033291 or with matched vehicle control as described in Zhang et al. Science. 2015; 348(6240):aaa2340. PMCID: PMC4481126. Treatment continued twice daily for 4 weeks. Mice were sacrificed at 3 hours following their final injection. After sacrifice the left hippocampus was dissected, flash frozen, and powdered, and eicosanoids were extracted in aqueous buffer for analysis. Protein concentration of the extracts were assayed, and eicosanoid values were recorded as ng eicosanoid per mg protein.

eicosanoids [2] = assay: Eicosanoid profiling by LC-MS/MS, right brain hemisphere of wild-type and 5×FAD mice; conditions: 5 mk/kg twice daily for 4 weeks
Experimental: as §1
as §2, with “FIG. 3” for “FIG. 2”, “the right hemisphere of the brain” for “the left hippocampus”

eicosanoids [3] = assay: Eicosanoid profiling by LC-MS/MS, brain hemispheres of mice after sham or traumatic brain injury (TBI); conditions: for eicosanoid values in left hemisphere / eicosanoid values in right hemisphere (trends): 5 mk/kg twice daily for 21 days
Experimental: as §1
FIGS. 4-6 illustrate graphs showing comparisons of eicosanoid values in brain of wild-type male mice who at 8 weeks of age were subjected to sham or actual traumatic brain injury (TBI) delivered by blast wave to the left skull. 24 hours following sham or actual TBI treatment commenced by injection twice daily with either 5 mk/kg (+)-SW033291 or with matched vehicle control as described in Zhang et al. Science. 2015; 348(6240):aaa2340. PMCID: PMC4481126. Treatment continued for 21 days until mice reached 11 weeks of age. Three hours following the last injection, mice were sacrificed. After sacrifice the right or left hemisphere of the brain was dissected, flash frozen, and powdered, and eicosanoids were extracted in organic solvent for analysis. Values were normalized to the wet weight of the companion contralateral brain hemispheres and are recorded as ng eicosanoid per gm wet weight of tissue.

[4] = system: C57/B6 mice exposed to TBI; assay: Silver staining for axon degeneration after TBI; conditions: 3 weeks after TBI, 5 mg/kg twice daily started 24 hours after injury
Experimental: 8 week old C57/B6 mice were exposed to sham-injury or TBI. Twice daily treatment with 5 mg/kg (+)-SW033291, 5 mg/kg (−)-SW033291, or vehicle was started 24 hours after injury and continued throughout the duration of the experiment. Animals were sacrificed by transcardial perfusion 3 weeks after TBI or sham-injury, and fixed brains were processed for silver staining. […] Individual mouse data points are shown on the graph. Data was analyzed using two-way repeated measures ANOVA; * p<0.05, ** p<0.01. All data is mean±SEM.

[5] = 5×FAD mice, versus vehicle control treated 5×FAD mice
[6] = wild-type mice, compared to vehicle treated wild-type mice
[7] = following TBI, compared to vehicle treated mice
[8] = sham mice, compared to vehicle treated sham mice

CCCC[S+]([O-])c1sc2nc(-c3cccs3)cc(-c3ccccc3)c2c1N (single isomer, unassigned; (+)) [(+)-SW033291]
TXB2 in left hippocampus (eicosanoids [1]; [5]): significant increase in TXB2
eicosanoid values in left hippocampus (trends) (eicosanoids [1]; [5]): a trend to increased 6-keto-PGF1a, PGD2, PGE2, PGJ2, PGF2a
eicosanoid values in left hippocampus (trends) (eicosanoids [1]; wild-type mice, versus vehicle treated mice): trends for increases in 6-keto-PGF1a, PGD2, PGE2, PGF2a, and 9,10-DiHOME
eicosanoid values in right hemisphere of the brain (trends) (eicosanoids [2]; [5]): a trend to increased 15-keto-PGE2, TN-E, PGF2a, 12,13-DiHOME, and 11,12-DHET
6-keto-PGF1a, PGE2 in right hemisphere of the brain (eicosanoids [2]; [6]): significant increase in 6-keto-PGF1a, PGE2
eicosanoid values in right hemisphere of the brain (trends) (eicosanoids [2]; [6]): a trend to increased TXB2, PGD2, 15-keto-PGE2, TN-E, PGJ2, PGF2a, LTB4, 15-HETE, 12-HETE, 8-HETE, 17-HDHA, 9,10-DiHOME, 14,15-DHET
left hemisphere values of PGJ2, TN-E, 15-HETE, and 9,10-DiHOME (eicosanoids [3]; TBI treated mice versus sham injury vehicle treated mice): restoration
eicosanoid values in left hemisphere (eicosanoids [3]; [7]): significantly increased PGJ2, TN-E, 15-HETE, 8-HETE, 5-HETE, 9,10-DiHOME, and LTB4
eicosanoid values in right hemisphere (trends) (eicosanoids [3]; [7]): trends toward decreased PGJ2, and TxB2
eicosanoid values in left hemisphere (eicosanoids [3]; [8]): significantly decreased PGE2, PGF2a, 6-keto-PGF1a, PGD2, PGJ2, TN-E, TxB2, 15-HETE, 12-HETE, 9,10-DiHOME
eicosanoid values in right hemisphere (trends) (eicosanoids [3]; [8]): a trend toward increased PGE2, 15-keto-PGE2, PGF2a, TN-E, 15-HETE, 12-HETE, 8-HETE, 5-HETE, and LTB4
silver staining (axon degeneration) ([4]; 5 mg/kg): reduced silver staining equivalent to sham-injury-vehicle
silver staining (axon degeneration) ([4]; listed as (+)-SW033921, 5 mg/kg): protects wild type mice from axon degeneration after TBI
